From US20250221966A1, “RXFP1 AGONISTS” (BRISTOL-MYERS SQUIBB COMPANY, priority 2021, published 2025)

How the values were obtained:
[1] = intravenous (IV) formulation; cited from earlier work
human RXFP1 = biological target: T1, human RXFP1 (Homo sapiens, UniProt Q9HBX9); experiment: RXFP1 cAMP assay (hRXFP1 HEK293 cAMP assay, HTRF); type: cell-based; details: HEK293 cells stably expressing human RXFP1, 30 min at room temperature, read-out: cAMP hRXFP1 HEK293 Assay EC50
T1 construct: expressed in transfected cells
T1 sequence (Q9HBX9 1-757): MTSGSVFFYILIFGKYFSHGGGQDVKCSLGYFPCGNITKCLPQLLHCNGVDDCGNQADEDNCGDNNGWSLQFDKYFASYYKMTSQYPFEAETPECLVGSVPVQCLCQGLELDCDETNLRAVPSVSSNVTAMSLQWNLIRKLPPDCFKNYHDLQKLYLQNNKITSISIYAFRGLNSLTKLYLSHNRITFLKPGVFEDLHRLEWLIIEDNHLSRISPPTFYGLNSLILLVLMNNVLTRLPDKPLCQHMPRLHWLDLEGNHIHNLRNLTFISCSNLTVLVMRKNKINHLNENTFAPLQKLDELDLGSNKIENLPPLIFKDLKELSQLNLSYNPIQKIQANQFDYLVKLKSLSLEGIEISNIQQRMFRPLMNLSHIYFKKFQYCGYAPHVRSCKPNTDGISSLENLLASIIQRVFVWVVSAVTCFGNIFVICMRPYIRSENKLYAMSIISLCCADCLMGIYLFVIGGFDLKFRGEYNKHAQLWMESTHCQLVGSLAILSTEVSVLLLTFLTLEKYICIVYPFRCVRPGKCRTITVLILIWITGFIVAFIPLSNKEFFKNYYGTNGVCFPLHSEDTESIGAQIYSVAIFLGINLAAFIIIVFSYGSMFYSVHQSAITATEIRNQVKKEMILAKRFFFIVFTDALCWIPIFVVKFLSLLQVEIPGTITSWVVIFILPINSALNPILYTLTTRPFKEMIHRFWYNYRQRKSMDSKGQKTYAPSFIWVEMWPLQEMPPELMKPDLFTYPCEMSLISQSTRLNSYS
In short: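 hRXFP1-HEK293 stable line; HBSS + Ca/Mg, 20 mM HEPES, 0.05% BSA, 0.5 mM IBMX; cpd 0.010 nM–50 μM, 2% DMSO; 30 min RT; lysis, HTRF cAMP detection; 4-PL fit.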

For Serelaxin, the first-phase pharmacokinetic half-life [1] is given as 5.4 min.

Molecule `COc1ccc(-c2cc(CO)ccc2F)cc1C(=O)N[C@@H]1C2CCC(/C2=C/c2cnoc2)[C@@H]1C(=O)Nc1ccc(F)c(C(F)(F)F)c1` (stereo partly drawn) [compound 176] has an EC50 (human RXFP1) of 57 nM.

In the case of `COc1cc(F)c(F)cc1C(=O)N[C@@H]1C2CCC(/C2=C/C2=CCCCC2)[C@@H]1C(=O)Nc1ccc(F)c(C(F)(F)F)c1` (stereo partly drawn) [compound 35], the EC50 (human RXFP1) is reported as 30 nM.

For `COc1ccc(C2=NO[C@H]3CC(CO)C[C@@H]23)cc1C(=O)N[C@H]1[C@@H](C(=O)Nc2ccc(F)c(C(F)(F)F)c2)[C@H]2CC[C@@H]1/C2=C\C1CC(F)(F)C1` (stereo partly drawn) [compound 840], the EC50 (human RXFP1) was 4.5 nM.

Molecule `COc1ccc(-c2cccc(C3=NOC4CC(O)CC34)c2)cc1C(=O)N[C@H]1[C@@H](C(=O)Nc2ccc(F)c(C(F)(F)F)c2)[C@H]2CC[C@@H]1/C2=C\C1CC1` (stereo partly drawn) [compound 902] has an EC50 (human RXFP1) of 8.7 nM.

In the case of `COc1c(F)cc(C2=NOC3CC(CO)CC23)cc1C(=O)N[C@H]1[C@@H](C(=O)N[C@H](C)C2(C)CC2)[C@H]2CC[C@@H]1/C2=C\CC(O)C(F)(F)F` (stereo partly drawn) [compound 832], the EC50 (human RXFP1) is reported as 3.6 nM.

Molecule `COc1ccc(C2=NO[C@H]3C[C@H](CO)C[C@@H]23)cc1C(=O)N[C@H]1[C@@H](C(=O)NC23CC(C)(C2)C3)[C@H]2CC[C@@H]1/C2=C\C[C@@H](O)C(F)(F)F` [compound 831] has an EC50 (human RXFP1) of 3.5 nM.

`COc1ccc(N2CCCC2=O)cc1C(=O)N[C@H]1[C@@H](C(=O)Nc2ccc(F)c(C(F)(F)F)c2)[C@H]2CC[C@@H]1/C2=C\C1CC1` [compound 636] gave an EC50 (human RXFP1) of 196 nM.

For `COc1ccc(-c2ccc3[nH]cc(C(=O)O)c3c2)cc1C(=O)N[C@@H]1C2CCC(/C2=C/C(F)(F)F)[C@@H]1C(=O)Nc1ccc(F)c(C(F)(F)F)c1` (stereo partly drawn) [compound 295], the EC50 (human RXFP1) was 53 nM.

`COc1ccc(C2=NOC3CC(C(C)(C)O)CC23)cc1C(=O)N[C@H]1[C@@H](C(=O)Nc2ccc(F)c(C(F)(F)F)c2)[C@H]2CC[C@@H]1/C2=C\C1CC1` (single isomer, unassigned) [compound 579] showed an EC50 (human RXFP1) of 71.6 nM.

In the case of `COc1ccc(C2=NO[C@H]3CC(CO)C[C@@H]23)cc1C(=O)N[C@H]1[C@@H](C(=O)Nc2ccc(F)c(C(F)(F)F)c2)[C@H]2CC[C@@H]1/C2=C\CCC(F)(F)F` (stereo partly drawn) [compound 825], the EC50 (human RXFP1) is reported as 2.9 nM.

In the case of `COc1ccc(C2=NOC3CC(CO)CC23)cc1C(=O)N[C@H]1[C@@H](C(=O)Nc2ccc(F)c(C(F)(F)F)c2)[C@H]2CC[C@@H]1/C2=C\c1csc(C)n1` (stereo partly drawn) [compound 805], the EC50 (human RXFP1) is reported as 4.1 nM.

For `COc1cc(F)c(F)cc1C(=O)N[C@@H]1C2CCC(/C2=C/c2cnn(Cc3ccccc3)c2)[C@@H]1C(=O)Nc1ccc(F)c(C(F)(F)F)c1` (stereo partly drawn) [compound 61], the EC50 (human RXFP1) was 570 nM.

Work on `C=C/C=C1\C2CCC1[C@H](C(=O)Nc1ccc(F)c(C(F)(F)F)c1)[C@@H]2NC(=O)c1cc(-c2cc(C(=O)O)ccc2F)ccc1OC` (stereo partly drawn) [compound 158] yielded an EC50 (human RXFP1) of 100 nM.

For `COc1ccc(C2=NOC3COCC23)cc1C(=O)N[C@H]1[C@@H](C(=O)Nc2ccc(F)c(C(F)(F)F)c2)[C@H]2CC[C@@H]1/C2=C\c1cscn1` (stereo partly drawn) [compound 737], the EC50 (human RXFP1) was 3.2 nM.

For `COc1ccc(C2=NOC3CC(CO)CC23)cc1C(=O)N[C@@H]1C2CCC(/C2=C/C2CC2)[C@@H]1C(=O)Nc1ccc(F)c(C(F)(F)F)c1` (single isomer, unassigned) [compound 431], the EC50 (human RXFP1) was 250 nM.

For `COc1ccc(C2=NOC(CO)C2)cc1C(=O)N[C@@H]1C2CCC(/C2=C/C2CC2)[C@@H]1C(=O)Nc1ccc(F)c(C(F)(F)F)c1` (stereo partly drawn) [compound 380], the EC50 (human RXFP1) was 23 nM.

`COCC1(NC(=O)[C@@H]2[C@H](NC(=O)c3cc(C4=NOC5COCC45)ccc3OC)[C@@H]3CC[C@H]2/C3=C/C2CC2)CCCC1` (stereo partly drawn) [compound 632] showed an EC50 (human RXFP1) of 190 nM.

Molecule `COc1ccc(-c2cccc(OC(F)(F)F)c2)cc1C(=O)N[C@@H]1C2CCC(/C2=C/C2CC2)[C@@H]1C(=O)Nc1ccc(F)c(C(F)(F)F)c1` (stereo partly drawn) [compound 281] has an EC50 (human RXFP1) of 15 nM.

Work on `COc1ccc(C2=NOC3COCC23)cc1C(=O)N[C@H]1[C@@H](C(=O)NCc2c(C)noc2C)[C@H]2CC[C@@H]1/C2=C\C1CC1` (stereo partly drawn) [compound 673] yielded an EC50 (human RXFP1) of 477 nM.

Molecule `COc1ccc(-c2cc(C3=NOC4COCC34)ccc2F)cc1C(=O)N[C@H]1[C@@H](C(=O)Nc2ccc(F)c(C(F)(F)F)c2)[C@H]2CC[C@@H]1/C2=C\C1CC1` (stereo partly drawn) [compound 911] has an EC50 (human RXFP1) of 7.6 nM.

In the case of `COc1ccc(C2=NOC(CCO)C2CCO)cc1C(=O)N[C@H]1[C@@H](C(=O)Nc2ccc(F)c(C(F)(F)F)c2)[C@H]2CC[C@@H]1/C2=C\C1CC1` (stereo partly drawn) [compound 501], the EC50 (human RXFP1) is reported as 11.6 nM.

For `COc1ccc(C2=NOC3COCC23)cc1C(=O)N[C@H]1[C@@H](C(=O)Nc2cc(C(F)(F)F)c(F)cc2F)[C@H]2CC[C@@H]1/C2=C\C1CC1` (stereo partly drawn) [compound 767], the EC50 (human RXFP1) was 3 nM.

Work on `C=C/C=C1\C2CCC1[C@H](C(=O)Nc1ccc(F)c(C(F)(F)F)c1)[C@@H]2NC(=O)c1cc(-c2cc(C(=O)NS(C)(=O)=O)ccc2F)ccc1OC` (stereo partly drawn) [compound 162] yielded an EC50 (human RXFP1) of 40 nM.

`COc1cc(F)c(F)cc1C(=O)N[C@@H]1C2CCC(/C2=C/c2cccc(C)c2)[C@@H]1C(=O)Nc1ccc(F)c(C(F)(F)F)c1` (stereo partly drawn) [compound 24] showed an EC50 (human RXFP1) of 94 nM.

In the case of `COc1ccc(-c2cc([C@H](OC(=O)NC3CC3)C(F)(F)F)ccc2F)cc1C(=O)N[C@H]1[C@@H](C(=O)Nc2ccc(F)c(C(F)(F)F)c2)[C@H]2CC[C@@H]1/C2=C\C1CC(F)(F)C1` [compound 931], the EC50 (human RXFP1) is reported as 2.5 nM.

For `COc1ccc(C2=NOC(CO)C2)cc1C(=O)N[C@H]1[C@@H](C(=O)Nc2ccc(F)c(C(F)(F)F)c2)[C@H]2CC[C@@H]1/C2=C\C1CCC1` (mixture of isomers) [Example 378, (1R,2S,3R,4R,Z)-7-(cyclobutylmethylene)-N-(4-fluoro-3-(trifluoromethyl)phenyl)-3-(5-(5-(hydroxymethyl)-4,5-dihydroisoxazol-3-yl)-2-methoxybenzamido)bicyclo[2.2.1]heptane-2-carboxamide], the EC50 (human RXFP1) was 16 nM.

With `COc1c(F)cc(C2=NOC3CC(C)(CO)CC23)cc1C(=O)N[C@H]1[C@@H](C(=O)N[C@H](C)C2(C)CC2)[C@H]2CC[C@@H]1/C2=C\C1CC1` (stereo partly drawn) [compound 961] the EC50 (human RXFP1) was 1 nM.

Molecule `COc1ccc(C2=NOC3COCC23)cc1C(=O)N[C@H]1[C@@H](C(=O)NCCC(C)(C)C)[C@H]2CC[C@@H]1/C2=C\C1CC1` (stereo partly drawn) [compound 612] has an EC50 (human RXFP1) of 134 nM.

With `COc1ncc(-c2ccc(OC)c(C(=O)N[C@@H]3C4CCC(/C4=C/C4CC4)[C@@H]3C(=O)Nc3ccc(F)c(C(F)(F)F)c3)c2)cn1` (stereo partly drawn) [compound 279] the EC50 (human RXFP1) was 15 nM.

In the case of `COc1ccc(-c2cc(C(=O)Nc3nnn[nH]3)ccc2F)cc1C(=O)N[C@@H]1C2CCC(/C2=C/c2cnoc2)[C@@H]1C(=O)Nc1ccc(F)c(C(F)(F)F)c1` (stereo partly drawn) [Example 192], the EC50 (human RXFP1) is reported as 135 nM.

`COc1ccc(C2=NOC(CC(=O)O)C2)cc1C(=O)N[C@@H]1C2CCC(/C2=C/C(F)(F)F)[C@@H]1C(=O)Nc1ccc(F)c(C(F)(F)F)c1` (stereo partly drawn) [compound 396] gave an EC50 (human RXFP1) of 320 nM.

`COc1ccc(C2=NOC3CC(CO)CC23)cc1C(=O)N[C@H]1[C@@H](C(=O)Nc2ccc(F)c(C(F)(F)F)c2)[C@H]2CC[C@@H]1/C2=C\C(C)C` (stereo partly drawn) [compound 450] showed an EC50 (human RXFP1) of 1.6 nM.

With `COc1cc(F)c(F)cc1C(=O)N[C@@H]1C2CCC(/C2=C/c2cccc(Cl)c2)[C@@H]1C(=O)Nc1ccc(F)c(C(F)(F)F)c1` (stereo partly drawn) [compound 17] the EC50 (human RXFP1) was 120 nM.

With `O=C(N[C@H]1[C@@H](C(=O)Nc2ccc(F)c(C(F)(F)F)c2)[C@H]2CC[C@@H]1/C2=C\C1CC1)c1cc(C2=NOC3CC(CO)CC23)cc(F)c1OCC1CC1` (stereo partly drawn) [compound 794] the EC50 (human RXFP1) was 3.2 nM.

With `COc1ccc(-c2cc([C@H](OC(=O)NC3CCC3)C(F)(F)F)ccc2F)cc1C(=O)N[C@H]1[C@@H](C(=O)N[C@H](C)C2(C)CC2)[C@H]2CC[C@@H]1/C2=C\CCC(F)(F)F` [compound 966] the EC50 (human RXFP1) was 6.9 nM.

`COc1ccc(C2=NO[C@H]3CC(CO)C[C@@H]23)cc1C(=O)N[C@H]1[C@@H](C(=O)Nc2ccc(F)c(C(F)(F)F)c2)[C@H]2CC[C@@H]1/C2=C\CC1CCC1` (stereo partly drawn) [compound 837] gave an EC50 (human RXFP1) of 4.3 nM.

`COc1cc(F)c(F)cc1C(=O)N[C@@H]1C2CCC(/C2=C/C(=O)OCc2ccccc2)[C@@H]1C(=O)Nc1ccc(F)c(C(F)(F)F)c1` (stereo partly drawn) [compound 9] gave an EC50 (human RXFP1) of 310 nM.

Work on `COc1ccc(C2=NOC3COCC23)cc1C(=O)N[C@H]1[C@@H](C(=O)NC2CCCCC2)[C@H]2CC[C@@H]1/C2=C\C1CC1` (stereo partly drawn) [compound 552] yielded an EC50 (human RXFP1) of 36.7 nM.

With `COc1ccc(C2=NOC3COCC23)cc1C(=O)N[C@H]1[C@@H](C(=O)NCCC2CCC2)[C@H]2CC[C@@H]1/C2=C\C1CC1` (stereo partly drawn) [compound 648] the EC50 (human RXFP1) was 242 nM.

For `COCCOC1(C2CC(c3ccc(OC)c(C(=O)N[C@H]4[C@@H](C(=O)Nc5ccc(F)c(C(F)(F)F)c5)[C@H]5CC[C@@H]4/C5=C\C4CC4)c3)=NO2)CC1` (single isomer, unassigned) [compound 558], the EC50 (human RXFP1) was 44.3 nM.

In the case of `COc1c(F)cc(C2=NOC(CO)C2)cc1C(=O)N[C@H]1[C@@H](C(=O)Nc2ccc(F)c(C(F)(F)F)c2)[C@H]2CC[C@@H]1/C2=C\CC(O)C(F)(F)F` (stereo partly drawn) [compound 835], the EC50 (human RXFP1) is reported as 3.9 nM.
